In PubChem BioAssay (NCI):
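96-well plates; 48 h exposure; 5 concentrations. Endpoints by linear interpolation between flanking doses. Not reached: highest tested concentration assigned. At the TGI there is no net growth.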

Columns and labels:
Assay in all cases: NCI tumour cell line growth inhibition, 48 h
HS 578T breast = system: HS 578T breast
RXF 393 renal = system: RXF 393 renal
EKVX NSCLC = system: EKVX NSCLC
SK-MEL-2 melanoma = system: SK-MEL-2 melanoma
KM12 colon = system: KM12 colon
SNB-75 CNS = system: SNB-75 CNS
SW-620 colon = system: SW-620 colon
U251 CNS = system: U251 CNS
MOLT-4 leukemia = system: MOLT-4 leukemia
DU-145 prostate = system: DU-145 prostate
ACHN renal = system: ACHN renal
SNB-19 CNS = system: SNB-19 CNS
NCI-H460 lung = system: NCI-H460 lung
UACC-62 melanoma = system: UACC-62 melanoma
CCRF-CEM leukemia = system: CCRF-CEM leukemia
HCT-116 colon = system: HCT-116 colon
PC-3 prostate = system: PC-3 prostate
HCT-15 colon = system: HCT-15 colon
NCI-H226 lung = system: NCI-H226 lung
OVCAR-4 ovarian = system: OVCAR-4 ovarian
SK-MEL-5 melanoma = system: SK-MEL-5 melanoma
SF-268 CNS = system: SF-268 CNS
UO-31 renal = system: UO-31 renal
SR leukemia = system: SR leukemia
A549 NSCLC = system: A549 NSCLC
SF-539 CNS = system: SF-539 CNS
SN12C renal = system: SN12C renal
HOP-62 NSCLC = system: HOP-62 NSCLC
CAKI-1 renal = system: CAKI-1 renal
MALME-3M melanoma = system: MALME-3M melanoma
A498 renal = system: A498 renal
K-562 leukemia = system: K-562 leukemia
NCI/ADR-RES ovarian = system: NCI/ADR-RES ovarian
IGROV1 ovarian = system: IGROV1 ovarian
SF-295 CNS = system: SF-295 CNS
MDA-N = system: MDA-N
NCI-H522 lung = system: NCI-H522 lung
MDA-MB-231 breast = system: MDA-MB-231 breast
M14 melanoma = system: M14 melanoma
OVCAR-3 ovarian = system: OVCAR-3 ovarian
COLO 205 colon = system: COLO 205 colon
786-0 renal = system: 786-0 renal
NCI-H23 lung = system: NCI-H23 lung
RPMI-8226 leukemia = system: RPMI-8226 leukemia
OVCAR-8 ovarian = system: OVCAR-8 ovarian
LOX IMVI melanoma = system: LOX IMVI melanoma
HL-60(TB) leukemia = system: HL-60(TB) leukemia
T-47D breast = system: T-47D breast
OVCAR-5 ovarian = system: OVCAR-5 ovarian
BT-549 breast = system: BT-549 breast
HT29 colon = system: HT29 colon
SK-MEL-28 melanoma = system: SK-MEL-28 melanoma
MDA-MB-435 = system: MDA-MB-435
SK-OV-3 ovarian = system: SK-OV-3 ovarian
MCF7 breast = system: MCF7 breast
TK-10 renal = system: TK-10 renal
UACC-257 melanoma = system: UACC-257 melanoma

SMILES: CCCCNS(=O)(=O)c1n[nH]c(=O)[nH]c1=O
- TGI (HS 578T breast): > 100 µM
- TGI (RXF 393 renal): > 100 µM
- TGI (EKVX NSCLC): > 100 µM
- TGI (SK-MEL-2 melanoma): > 100 µM
- TGI (KM12 colon): > 100 µM
- TGI (SNB-75 CNS): > 100 µM
- TGI (SW-620 colon): > 100 µM
- TGI (U251 CNS): > 100 µM
- TGI (MOLT-4 leukemia): > 100 µM
- TGI (DU-145 prostate): > 100 µM
- TGI (ACHN renal): > 100 µM
- TGI (SNB-19 CNS): > 100 µM
- TGI (NCI-H460 lung): > 100 µM
- TGI (UACC-62 melanoma): > 100 µM
- TGI (CCRF-CEM leukemia): 35.7 µM
- TGI (HCT-116 colon): > 100 µM
- TGI (PC-3 prostate): > 100 µM
- TGI (HCT-15 colon): > 100 µM
- TGI (NCI-H226 lung): > 100 µM
- TGI (OVCAR-4 ovarian): > 100 µM
- TGI (SK-MEL-5 melanoma): > 100 µM
- TGI (SF-268 CNS): > 100 µM
- TGI (UO-31 renal): > 100 µM
- TGI (SR leukemia): > 100 µM
- TGI (A549 NSCLC): > 100 µM
- TGI (SF-539 CNS): > 100 µM
- TGI (SN12C renal): > 100 µM
- TGI (HOP-62 NSCLC): > 100 µM
- TGI (CAKI-1 renal): > 100 µM
- TGI (MALME-3M melanoma): > 100 µM
- TGI (A498 renal): > 100 µM
- TGI (K-562 leukemia): > 100 µM
- TGI (NCI/ADR-RES ovarian): > 100 µM
- TGI (IGROV1 ovarian): > 100 µM
- TGI (SF-295 CNS): > 100 µM
- TGI (MDA-N): > 100 µM
- TGI (NCI-H522 lung): > 100 µM
- TGI (MDA-MB-231 breast): > 100 µM
- TGI (M14 melanoma): > 100 µM
- TGI (OVCAR-3 ovarian): > 100 µM
- TGI (COLO 205 colon): > 100 µM
- TGI (786-0 renal): > 100 µM
- TGI (NCI-H23 lung): > 100 µM
- TGI (RPMI-8226 leukemia): > 100 µM
- TGI (OVCAR-8 ovarian): > 100 µM
- TGI (LOX IMVI melanoma): > 100 µM
- TGI (HL-60(TB) leukemia): > 100 µM
- TGI (T-47D breast): > 100 µM
- TGI (OVCAR-5 ovarian): > 100 µM
- TGI (BT-549 breast): > 100 µM
- TGI (HT29 colon): > 100 µM
- TGI (SK-MEL-28 melanoma): > 100 µM
- TGI (MDA-MB-435): > 100 µM
- TGI (SK-OV-3 ovarian): > 100 µM
- TGI (MCF7 breast): > 100 µM

SMILES: CSc1nn(C)cc2ncnc1-2
- TGI (HS 578T breast): > 100 µM
- TGI (RXF 393 renal): > 100 µM
- TGI (EKVX NSCLC): > 100 µM
- TGI (SK-MEL-2 melanoma): > 100 µM
- TGI (KM12 colon): > 100 µM
- TGI (SNB-75 CNS): 64 µM
- TGI (SW-620 colon): > 100 µM
- TGI (U251 CNS): > 100 µM
- TGI (MOLT-4 leukemia): > 100 µM
- TGI (DU-145 prostate): > 100 µM
- TGI (ACHN renal): > 100 µM
- TGI (SNB-19 CNS): > 100 µM
- TGI (NCI-H460 lung): > 100 µM
- TGI (UACC-62 melanoma): > 100 µM
- TGI (CCRF-CEM leukemia): > 100 µM
- TGI (HCT-116 colon): > 100 µM
- TGI (PC-3 prostate): > 100 µM
- TGI (HCT-15 colon): > 100 µM
- TGI (NCI-H226 lung): > 100 µM
- TGI (SK-MEL-5 melanoma): > 100 µM
- TGI (SF-268 CNS): > 100 µM
- TGI (UO-31 renal): > 100 µM
- TGI (SR leukemia): > 100 µM
- TGI (A549 NSCLC): > 100 µM
- TGI (SF-539 CNS): > 100 µM
- TGI (SN12C renal): > 100 µM
- TGI (HOP-62 NSCLC): > 100 µM
- TGI (CAKI-1 renal): > 100 µM
- TGI (A498 renal): > 100 µM
- TGI (K-562 leukemia): > 100 µM
- TGI (TK-10 renal): > 100 µM
- TGI (NCI/ADR-RES ovarian): > 100 µM
- TGI (IGROV1 ovarian): > 100 µM
- TGI (SF-295 CNS): > 100 µM
- TGI (UACC-257 melanoma): > 100 µM
- TGI (MDA-N): > 100 µM
- TGI (MDA-MB-231 breast): > 100 µM
- TGI (M14 melanoma): > 100 µM
- TGI (OVCAR-3 ovarian): > 100 µM
- TGI (COLO 205 colon): > 100 µM
- TGI (786-0 renal): > 100 µM
- TGI (NCI-H23 lung): > 100 µM
- TGI (RPMI-8226 leukemia): > 100 µM
- TGI (OVCAR-8 ovarian): > 100 µM
- TGI (HL-60(TB) leukemia): > 100 µM
- TGI (T-47D breast): > 100 µM
- TGI (OVCAR-5 ovarian): > 100 µM
- TGI (BT-549 breast): > 100 µM
- TGI (HT29 colon): > 100 µM
- TGI (SK-MEL-28 melanoma): > 100 µM
- TGI (MDA-MB-435): > 100 µM
- TGI (MCF7 breast): > 100 µM
